In brackets after ≈: the same amount, converted by molar mass.
What was measured:
Assay in all cases: In vitro antibacterial evaluation: minimum inhibitory concentration (MIC), broth dilution method
Format in all cases: cell-based
[1] = test system: Enterococcus sp.; settings: broth dilution, 5×10^5 CFU/mL, 18 hours at 35° C.
Protocol: (§1) The minimum inhibitory concentration (MIC), the lowest concentration of the antibiotic which inhibits growth of the test organism, is determined by the broth dilution method using Muller-Hinton II […] (Baltimore Biological Laboratories) following the recommendations of the National Committee for Clinical Laboratory Standards [Methods for dilution antimicrobial susceptibility tests for bacteria that grow aerobically, approved standard M7-A2, National Committee for Clinical Laboratory Standards, Villanova, Pa].
(§2) An inoculum level of 5×10^5 CFU/mL, and a range of antibiotic concentrations (64-0.06 μg/mL) is used. […] The test organisms include a spectrum of Gram-positive bacteria comprised of Staphylococcus sp., Streptococcus sp. and Enterococcus sp. These organisms include recent clinical isolates that are resistant to methicillin, penicillin and/or vancomycin.

[2] = test system: Streptococcus sp.; settings: broth dilution, 5×10^5 CFU/mL, 18 hours at 35° C.
Protocol: as §1, §2

[3] = test system: Staphylococcus sp.; settings: for MIC Staphylococcus aureus (ATCC 29213): strain ATCC 29213; for MIC Staphylococcus aureus (GC 1131): strain GC 1131; for MIC Staphylococcus aureus (GC 3051): strain GC 3051; for MIC Staphylococcus aureus (GC 3053): strain GC 3053; for MIC Staphylococcus aureus (GC 4541): strain GC 4541; for MIC Staphylococcus aureus (GC 4542): strain GC 4542; for MIC Staphylococcus aureus-SMITH (GC 4543): strain GC 4543; for MIC Staphylococcus aureus (GC 4544): strain GC 4544; for MIC Staphylococcus aureus (GC 4545): strain GC 4545; for MIC Staphylococcus haemolyticus (GC 4546): strain GC 4546; for MIC Coagulase Negative Staphylococcus (GC 4547): strain GC 4547; for MIC Coagulase Negative Staphylococcus (GC 4548): strain GC 4548; for MIC Coagulase Negative Staphylococcus (GC 4549): strain GC 4549; for MIC Coagulase Negative Staphylococcus (GC 4551): strain GC 4551; for MIC Coagulase Negative Staphylococcus (GC 6257): strain GC 6257
Protocol: as §1, §2

[4] = test system: Escherichia coli; settings: 5×10^5 CFU/mL, 18 hours at 35° C.
Protocol: as §1, §2

[5] = broth dilution, 18 hours at 35° C.

CCCCOC(=O)CCC1OCC2OC(OC3C(CO)OC(Oc4ccc(CC5NC(=O)C(C(C)c6ccccc6)NC(=O)CNC(=O)C(CO)NC(=O)C(C(O)C6CNC(=N)N6C6OC(CO)C(O)C(O)C6O)NC(=O)C(C(O)C6CNC(=N)N6)NC5=O)cc4)C(O)C3O)C(O)C(O)C2O1 (stereo not drawn) [Example 114, Cyclo[glycyl-β-methylphenylalanyl-O-[4-O-[4,6-O-(4-butoxy-4-oxobutylidene)hexopyranosyl]-hexopyranosyl]tyrosyl-3-(2-iminoimidazolidin-4-yl)seryl-3-(3-hexopyranosyl-2-iminoimidazolidin-4-yl)serylseryl]]
MIC Enterococccus avium (GC 4558) [1]: 8 µg/mL (≈ 5.57 µM) | MIC Enterococccus faecalis (ATCC 29212) [1]: 4 µg/mL (≈ 2.79 µM) | MIC Enterococccus faecalis (GC 2691) [1]: 4 µg/mL (≈ 2.79 µM) | MIC Enterococccus faecalis (GC 3059) [1]: 8 µg/mL (≈ 5.57 µM) | MIC Enterococccus faecalis (GC 4552) [1]: 4 µg/mL (≈ 2.79 µM) | MIC Enterococccus faecalis (GC 4553) [1]: 8 µg/mL (≈ 5.57 µM) | MIC Enterococccus faecalis (GC 4554) [1]: 4 µg/mL (≈ 2.79 µM) | MIC Enterococccus faecalis (GC 6189) [1]: 4 µg/mL (≈ 2.79 µM) | MIC Enterococccus faecium (GC 2243) [1]: 4 µg/mL (≈ 2.79 µM) | MIC Enterococccus faecium (GC 4556) [1]: 4 µg/mL (≈ 2.79 µM) | MIC Enterococccus faecium (GC 4557) [1]: 2 µg/mL (≈ 1.39 µM) | MIC Enterococcus faecalis (GC 2242) [1]: 4 µg/mL (≈ 2.79 µM) | MIC Streptococcus agalactiae (GC 4564) [2]: 0.5 µg/mL (≈ 0.348 µM) | MIC Streptococcus pneumoniae (GC 1894) [2]: <0.06 µg/mL | MIC Streptococcus pneumoniae (GC 4565) [2]: 0.25 µg/mL (≈ 0.174 µM) | MIC Streptococcus pneumonine (ATCC 6301) [2]: 0.12 µg/mL (≈ 0.0836 µM) | MIC Streptococcus pyogenes (GC 4563) [2]: 0.5 µg/mL (≈ 0.348 µM) | MIC Staphylococcus aureus (ATCC 29213) [3]: 2 µg/mL (≈ 1.39 µM) | MIC Staphylococcus aureus (ATCC 29213) [3, 5]: 2 µg/mL (≈ 1.39 µM) | MIC Staphylococcus aureus (GC 1131) [3]: 2 µg/mL (≈ 1.39 µM) | MIC Staphylococcus aureus (GC 1131) [3, 5]: 2 µg/mL (≈ 1.39 µM) | MIC Staphylococcus aureus (GC 3051) [3]: 2 µg/mL (≈ 1.39 µM) | MIC Staphylococcus aureus (GC 3051) [3, 5]: 2 µg/mL (≈ 1.39 µM) | MIC Staphylococcus aureus (GC 3053) [3]: 2 µg/mL (≈ 1.39 µM) | MIC Staphylococcus aureus (GC 3053) [3, 5]: 2 µg/mL (≈ 1.39 µM) | MIC Staphylococcus aureus (GC 4541) [3]: 2 µg/mL (≈ 1.39 µM) | MIC Staphylococcus aureus (GC 4541) [3, 5]: 2 µg/mL (≈ 1.39 µM) | MIC Staphylococcus aureus (GC 4542) [3]: 1 µg/mL (≈ 0.697 µM) | MIC Staphylococcus aureus (GC 4542) [3, 5]: 1 µg/mL (≈ 0.697 µM) | MIC Staphylococcus aureus-SMITH (GC 4543) ([3]; 18 hours at 35° C.): 2 µg/mL (≈ 1.39 µM) | MIC Staphylococcus aureus-SMITH (GC 4543) [3, 5]: 2 µg/mL (≈ 1.39 µM) | MIC Staphylococcus aureus (GC 4544) [3]: 2 µg/mL (≈ 1.39 µM) | MIC Staphylococcus aureus (GC 4544) [3, 5]: 2 µg/mL (≈ 1.39 µM) | MIC Staphylococcus aureus (GC 4545) [3]: 2 µg/mL (≈ 1.39 µM) | MIC Staphylococcus aureus (GC 4545) [3, 5]: 2 µg/mL (≈ 1.39 µM) | MIC Staphylococcus haemolyticus (GC 4546) [3]: 1 µg/mL (≈ 0.697 µM) | MIC Staphylococcus haemolyticus (GC 4546) [3, 5]: 1 µg/mL (≈ 0.697 µM) | MIC Coagulase Negative Staphylococcus (GC 4547) [3]: 2 µg/mL (≈ 1.39 µM) | MIC Coagulase Negative Staphylococcus (GC 4547) [3, 5]: 2 µg/mL (≈ 1.39 µM) | MIC Coagulase Negative Staphylococcus (GC 4548) [3]: 1 µg/mL (≈ 0.697 µM) | MIC Coagulase Negative Staphylococcus (GC 4548) [3, 5]: 1 µg/mL (≈ 0.697 µM) | MIC Coagulase Negative Staphylococcus (GC 4549) [3]: 2 µg/mL (≈ 1.39 µM) | MIC Coagulase Negative Staphylococcus (GC 4549) [3, 5]: 2 µg/mL (≈ 1.39 µM) | MIC Coagulase Negative Staphylococcus (GC 4551) [3]: 2 µg/mL (≈ 1.39 µM) | MIC Coagulase Negative Staphylococcus (GC 4551) [3, 5]: 2 µg/mL (≈ 1.39 µM) | MIC Coagulase Negative Staphylococcus (GC 6257) [3]: 1 µg/mL (≈ 0.697 µM) | MIC Coagulase Negative Staphylococcus (GC 6257) [3, 5]: 1 µg/mL (≈ 0.697 µM) | MIC Escherichia coli (ATCC 25922) [4]: 64 µg/mL (≈ 44.6 µM) | MIC Escherichia coli (GC 4559) [4]: 64 µg/mL (≈ 44.6 µM) | MIC Escherichia coli (GC 4560) [4]: 1 µg/mL (≈ 0.697 µM)

CC(c1ccccc1)C1NC(=O)CNC(=O)C(CO)NC(=O)C(C(O)C2CNC(=N)N2C2OC(CO)C(O)C(O)C2O)NC(=O)C(C(O)C2CNC(=N)N2)NC(=O)C(Cc2ccc(OC3OC(CO)C(OC4OC5COC(Cc6ccc(Br)cc6)OC5C(O)C4O)C(O)C3O)cc2)NC1=O (stereo not drawn) [Example 118, Cyclo[glycyl-β-methylphenylalanyl-O-[4-O-[4,6-O-(4-bromophenethylidene)hexopyranosyl]-hexopyranosyl]tyrosyl-3-(2-iminoimidazolidin-4-yl)seryl-3-(3-hexopyranosyl-2-iminoimidazolidin-4-yl)serylseryl]]
MIC Enterococccus avium (GC 4558) [1]: 1 to 2 µg/mL | MIC Enterococccus faecalis (ATCC 29212) [1]: 1 to 2 µg/mL | MIC Enterococccus faecalis (GC 2691) [1]: 1 to 2 µg/mL | MIC Enterococccus faecalis (GC 3059) [1]: 1 to 2 µg/mL | MIC Enterococccus faecalis (GC 4552) [1]: 1 to 2 µg/mL | MIC Enterococccus faecalis (GC 4553) [1]: 1 to 2 µg/mL | MIC Enterococccus faecalis (GC 4554) [1]: 1 to 2 µg/mL | MIC Enterococccus faecalis (GC 6189) [1]: 1 to 2 µg/mL | MIC Enterococccus faecium (GC 2243) [1]: 1 µg/mL (≈ 0.677 µM) | MIC Enterococccus faecium (GC 4556) [1]: <0.5 to 1 µg/mL | MIC Enterococccus faecium (GC 4557) [1]: <0.5 to 2 µg/mL | MIC Enterococcus faecalis (GC 2242) [1]: <0.5 to 2 µg/mL | MIC Streptococcus agalactiae (GC 4564) [2]: <0.06 µg/mL | MIC Streptococcus pneumoniae (GC 1894) [2]: <0.06 µg/mL | MIC Streptococcus pneumoniae (GC 4565) [2]: <0.06 µg/mL | MIC Streptococcus pneumonine (ATCC 6301) [2]: <0.06 µg/mL | MIC Streptococcus pyogenes (GC 4563) [2]: <0.06 µg/mL | MIC Staphylococcus aureus (ATCC 29213) [3]: <0.5 to 1 µg/mL | MIC Staphylococcus aureus (ATCC 29213) [3, 5]: <0.5 to 1 µg/mL | MIC Staphylococcus aureus (GC 1131) [3]: <0.5 to 1 µg/mL | MIC Staphylococcus aureus (GC 1131) [3, 5]: <0.5 to 1 µg/mL | MIC Staphylococcus aureus (GC 3051) [3]: <0.5 to 1 µg/mL | MIC Staphylococcus aureus (GC 3051) [3, 5]: <0.5 to 1 µg/mL | MIC Staphylococcus aureus (GC 3053) [3]: 1 µg/mL (≈ 0.677 µM) | MIC Staphylococcus aureus (GC 3053) [3, 5]: 1 µg/mL (≈ 0.677 µM) | MIC Staphylococcus aureus (GC 4541) [3]: <0.5 to 1 µg/mL | MIC Staphylococcus aureus (GC 4541) [3, 5]: <0.5 to 1 µg/mL | MIC Staphylococcus aureus (GC 4542) [3]: <0.5 to 1 µg/mL | MIC Staphylococcus aureus (GC 4542) [3, 5]: <0.5 to 1 µg/mL | MIC Staphylococcus aureus-SMITH (GC 4543) ([3]; 18 hours at 35° C.): <0.5 to 1 µg/mL | MIC Staphylococcus aureus-SMITH (GC 4543) [3, 5]: <0.5 to 1 µg/mL | MIC Staphylococcus aureus (GC 4544) [3]: <0.5 to 1 µg/mL | MIC Staphylococcus aureus (GC 4544) [3, 5]: <0.5 to 1 µg/mL | MIC Staphylococcus aureus (GC 4545) [3]: <0.5 to 1 µg/mL | MIC Staphylococcus aureus (GC 4545) [3, 5]: <0.5 to 1 µg/mL | MIC Coagulase Negative Staphylococcus (GC 4547) [3]: <0.5 to 1 µg/mL | MIC Coagulase Negative Staphylococcus (GC 4547) [3, 5]: <0.5 to 1 µg/mL | MIC Coagulase Negative Staphylococcus (GC 4551) [3]: <0.5 to 1 µg/mL | MIC Coagulase Negative Staphylococcus (GC 4551) [3, 5]: <0.5 to 1 µg/mL | MIC Escherichia coli (GC 4559) [4]: 16 µg/mL (≈ 10.8 µM) | MIC Escherichia coli (GC 4560) [4]: 1 µg/mL (≈ 0.677 µM)
